Results taken from patent publication US5459160A, “Iridoid derivatives and the use thereof as a drug” (Tsumura & Co., priority 1990, dated 1995).
Where two headings read alike, the source gives them in different places.

Tests used:
bile secretion = assay: Cholagogic action, bile secretion (Experimental Example 5); assay type: in vivo, male Wistar rats; details: intraduodenal
Protocol: After male Wistar rats 7 weeks old were fasted for 24 hours, they were anesthetized by the interperitoneal administration of 1.25 g/kg (volume 2 m.iota./kg) of urethane. A polyethylene canula (SP-10, a product of Natsume Seisakusho) was inserted into a bile duct and after the bile was caused to flow out for 30 minutes, the bile was collected in the cource of 1 hour. Thereafter, each test drug was suspended or dissolved in a 1% aqueous Tween-80 solution, and was administered into the duodenum at a rate of 5 m.iota./kg. Furthermore, the bile was collected every hour in the course of five hours, and its weight was measured. Only a 1% Tween-80 solution was given as a control.
The results are tabulated in Tables 6, 7, 8, 9 and 10, wherein the bile secretion amount every hour was represented by a percentage with the bile secretion amount (mg) one hour before the dose of the test drug being 100.

hyperlipemia = assay: Anti-hyperlipemia test in rats on high fat food (Experimental Example 1); assay type: in vivo, Male Wistar rats; details: peroral once a day, two weeks, control 100, Table 1
From the text: Male Wistar rats 6.5 weeks old were allowed to freely intake a high fat food (containing 1% of cholesterol, 0.5% of sodium cholate, 12% of beef tallow and 20% of standard chow) in the cource of two weeks, to thus cause an outbreak of hyperlipemia. The dose of the drug was started simultaneously with the application of the high fat food, and was perorally given once a day through a stomach tube until the end of the experiment. The drugs were all suspended in a cane sugar fatty acid ester and were administered. The oily compounds were adjusted in advance to 100 mg/m.iota. by diethyl ether. A suitable amount was collected at the time of the dose and after diethyl ether was evaporated and removed, it was suspended in a cane sugar fatty acid ester (1% ryoto sugar ester) and then given. After the final dose of the drug, the rats were fasted for about 18 hours, and the blood was sampled to measure the blood serum lipid. The blood serum lipid was measured by using a TBA-380 biochemical analyzer (a product of Toshiba Medical Co.,) unless a particular hindrance occurred.

Acute toxicity test = details: mouse, in vivo, ip; male S.P.P. mice, abdominally administered; Table 11
Protocol: The acute toxicity test was carried out by abdominally administering each test drug to male S.P.P. mice and determining an LD50 value.

[1] = tested on: cholic acid and chenodeoxycholic acid synthetic activity in liver cells; assay: Synthetic activity of bile acid (cholic acid and chenodeoxycholic acid) in incubated liver cells (Experimental Example 3); assay type: cell-based, male Wistar rats; details: Rattus norvegicus, Hepatocyte, 24 hours, 37° C., control 100; for activity at 1 µM: 10^-6 M; for activity at 0.1 µM: 10^-7 M; for activity at 0.01 µM: 10^-8 M
Protocol: Influences on Synthetic Activity of Bilic Acid in Incubated Liver Cell
The liver cells were separated from male Wistar rats 5.0-5.5 weeks old using a reflux method in accordance with the method of Nakamura et al (Toshikazu Nakamura "The Experimental Method for the Primary Cultured Hepatocytes", 1987). In this case, the separation of the cells was started at 9-10:00 a.m. The separated liver cells were floated in a Williams E medium inactivated by heat-treatment and containing 10% FBS, 20 mU/m.iota. insulin, […] dexamethasone, 100 IU/m.iota. peniciline and 100 μg/m.iota. streptomycin so that the cell density became 1×10^5 cells/cm^2 /0.2 m.iota.. The liver cells were planted in a cell density of 1×10^5 cells/cm^2 /0.2 m.iota. in a dish having a diameter of 60 mm. After incubation at 37° C. for 4 hours, a medium exchange was made and the medium was changed to 3 m.iota.. Next, [4-^14 C] cholesterol was added in an amount of 11.655 kBq per dish, and a 0.33% ethanol solution of each test drug was added. Control used only 0.33% ethanol. After incubation was carried out at 37° C. for 24 hours, the synthetic activity of cholic acid and chemodexycholic acid generated in the cells and the medium were measured.
Measurement of Cholic Acid and Chenodeoxycholic Acid Synthetic Activity
The measurement of cholic acid and chenodeoxycholic acid synthetic activity was carried out in accordance with the method of M. G. Pricen et al (Hans M. G. Pricen, Chrisstine M. G. HuJismans, Folkerr Kuipers, Roel J. Vonk and Herman Jan M. Kempen, J. Clin. Invest., 78: 1064-1071, 1986). Twenty-four hours later, the cells and the medium were collected from the incubated liver cells and the cells were pulverized by a ultrasonic pulverizer. Bile acid was separated and eluted by a column cartridge having an opposite phase system, i.e., "Sep-pak"® C18 (Waters Associates, Milford, Mass.), and the conjugation of conjugated bile acid was hydrolyzed using choloylglycine hydrolase. The extraction of bile acid was carried out using chloroform after the solution was rendered acidic by hydrochloric acid. The extract was dissolved in 100 μ.iota. of water:methanol (1:4, containing 40 μg/10 μ.iota. cholic acid and 100 μg/100 μ.iota. chenodeoxycholic acid). 80 μ.iota. of this solution was spotted onto an aluminum plate (MERCK, ART 5582) and was developed using a developing solution consisting of benzene/1,4-dioxane/acetic acid (20:10:2). After the TLC plate was exposed to an iodine gas stream and each spot of bile acid was confirmed, it was cut off and its radioactivity was measured by a liquid scintillation counter. To correct the proportion of elution of the Sep-pak and the hydroclysis and extraction of conjugated bile acid by choloylglycine hydrolase, 2 nCi of [^3 H(G)] taurocholic acid was added and 3H of the spot of cholic acid was measured after the supersonic pulverization and correction was thus carried out (TsuJita, Y., Kuroda, M., Shimada, Y., Tanzawa, K., Arai, M., Kenko, I., Tanaka, M., Tarumi, C., Watanabe, Y., and Fujii, Biochemical et Biophysics Acta. 877:50-60, 1986).
Non-radioactive cholic acid and chenodeoxycholic acid were added as a carrier, to clarify the position of the spot by the iodine gas stream when bile acid was developed, but for the β-muricholic acid, the position of the spot was indefinite even when the non-radioactive acids were added. Therefore, the portion estimated by the Rf value described in the reference was cut off and measured again.

[2] = Table 3, read-out: Relative amount of synthesized chenodeoxycholic acid
[3] = Table 3, read-out: Relative amount of synthesized cholic acid
[4] = 0-1 hour after dose, control 82.9, Table 6
[5] = 1-2 hour after dose, control 74.1, Table 6
[6] = 2-3 hour after dose, control 66.1, Table 6
[7] = 3-4 hour after dose, control 59.8, Table 6
[8] = 4-5 hour after dose, control 53.3, Table 6
[9] = Table 4, read-out: Relative amount of synthesized chenodeoxycholic acid
[10] = Table 4, read-out: Relative amount of synthesized cholic acid

COC(=O)C1=COC(O)[C@@H]2[C@@H](CO)CC[C@H]12 (stereo partly drawn) [Definite Example 6, methyl (4aS, 7S, 7aS)-1,4a, 5,6,7,7a-hexahydro-1-hydroxy-7-(hydroxymethyl)cyclopenta[c]pyran-4-carboxylate]
Bile secretion amount, percentage of the hour before dose (bile secretion; 0-1 hour after dose, control 84.1, Table 8): 111.4% | Bile secretion amount, percentage of the hour before dose (bile secretion; 1-2 hour after dose, control 72.5, Table 8): 78.0% | Bile secretion amount, percentage of the hour before dose (bile secretion; 2-3 hour after dose, control 63.8, Table 8): 66.7% | Bile secretion amount, percentage of the hour before dose (bile secretion; 3-4 hour after dose, control 56.7, Table 8): 55.2% | Bile secretion amount, percentage of the hour before dose (bile secretion; 4-5 hour after dose, control 51.2, Table 8): 50.3% | Blood serum cholesterol (%) (hyperlipemia; 10 mg/kg): 79.6% | Blood serum triglyceride (%) (hyperlipemia; 10 mg/kg): 86.7% | Blood serum cholesterol (%) (hyperlipemia; 30 mg/kg): 85.4% | Blood serum triglyceride (%) (hyperlipemia; 30 mg/kg): 80.4% | LD50 (Acute toxicity test): 406 mg/kg

C[C@@H](CO)[C@H]1CC[C@H](C)[C@H]1CO [Definite Example 45, (2R)-2-[(1R, 2R, 3S)-2-(hydroxymethyl)-3-methylcyclopent-1-yl]propan-1-ol]
activity at 1 µM [1, 2]: 152% | activity at 1 µM [1, 3]: 146% | activity at 0.1 µM [1, 2]: 119% | activity at 0.1 µM [1, 3]: 121% | activity at 0.01 µM [1, 2]: 112% | activity at 0.01 µM [1, 3]: 108% | Bile secretion amount, percentage of the hour before dose (bile secretion; [4]): 163.8% | Bile secretion amount, percentage of the hour before dose (bile secretion; 0-1 hour after dose, control 87.7, Table 7): 163.4% | Bile secretion amount, percentage of the hour before dose (bile secretion; [5]): 99.7% | Bile secretion amount, percentage of the hour before dose (bile secretion; 1-2 hour after dose, control 75.3, Table 7): 99.6% | Bile secretion amount, percentage of the hour before dose (bile secretion; 2-3 hour after dose, control 65.0, Table 7): 75.2% | Bile secretion amount, percentage of the hour before dose (bile secretion; [6]): 78.6% | Bile secretion amount, percentage of the hour before dose (bile secretion; 3-4 hour after dose, control 58.7, Table 7): 61.7% | Bile secretion amount, percentage of the hour before dose (bile secretion; [7]): 67.8% | Bile secretion amount, percentage of the hour before dose (bile secretion; 4-5 hour after dose, control 51.8, Table 7): 53.3% | Bile secretion amount, percentage of the hour before dose (bile secretion; [8]): 59.1% | LD50 (Acute toxicity test): 406 mg/kg

COC(=O)C1=CO[C@@H](O[C@@H]2O[C@H](COC(C)=O)[C@@H](OC(C)=O)[C@H](OC(C)=O)[C@H]2OC(C)=O)[C@@H]2C(C)=CC[C@H]12 [Definite Example 7, methyl (1S, 4aS, 7aS)-1-(2,3,4,6-tetra-O-acetyl-β-D-glucopyranosyloxy)-1,4a, 5,7a-tetrahydro-7-methylcyclopenta[c]pyran-4-carboxylate]
Blood serum cholesterol (%) (hyperlipemia; 10 mg/kg): 94.4% | Blood serum triglyceride (%) (hyperlipemia; 10 mg/kg): 96.9% | Blood serum cholesterol (%) (hyperlipemia; 30 mg/kg): 105% | Blood serum triglyceride (%) (hyperlipemia; 30 mg/kg): 64.6% | LD50 (Acute toxicity test): 382 mg/kg

CC1=COC(O)[C@H]2[C@@H]1CC[C@@H]2C (stereo partly drawn) [Definite Example 43, (4aS, 7S, 7aR)-1,4a, 5,6,7,7a-hexahydro-4,7-dimethylcyclopenta[c]pyran-1-ol]
activity at 1 µM [1, 9]: 105% | activity at 1 µM [1, 10]: 109% | Bile secretion amount, percentage of the hour before dose (bile secretion; [4]): 156.2% | Bile secretion amount, percentage of the hour before dose (bile secretion; [5]): 95.2% | Bile secretion amount, percentage of the hour before dose (bile secretion; [6]): 76.1% | Bile secretion amount, percentage of the hour before dose (bile secretion; [7]): 65.7% | Bile secretion amount, percentage of the hour before dose (bile secretion; [8]): 58.3% | LD50 (Acute toxicity test): 231 mg/kg

COC(=O)C1=COC(=O)[C@@H]2C(CO[Si](c3ccccc3)(c3ccccc3)C(C)(C)C)=CC[C@H]12 [Definite Example 28, methyl (4aS, 7aS)-7-[(tert-butyldiphenylsilyloxy)methyl]-1,4a, 5,7a-tetrahydro-1-oxocyclopenta[c]pyran-4-carboxylate]
LD50 (Acute toxicity test): 406 mg/kg

C[C@H]1COC(O)[C@H]2[C@@H]1CC[C@@H]2C (stereo partly drawn) [Definite Example 44, (4R, 4aR, 7S, 7aR)-1,3,4,4a, 5,6,7,7a-octahydro-4,7-dimethylcyclopenta[c]pyran-1-ol]
activity at 1 µM [1, 9]: 155% | activity at 1 µM [1, 10]: 130% | Bile secretion amount, percentage of the hour before dose (bile secretion; [4]): 137.2% | Bile secretion amount, percentage of the hour before dose (bile secretion; [5]): 95.0% | Bile secretion amount, percentage of the hour before dose (bile secretion; [6]): 78.4% | Bile secretion amount, percentage of the hour before dose (bile secretion; [7]): 66.5% | Bile secretion amount, percentage of the hour before dose (bile secretion; [8]): 59.8% | LD50 (Acute toxicity test): 389 mg/kg

OCC1=CC[C@@H]2C(CO)=CO[C@@H](OC3CCCCO3)[C@H]12 (stereo partly drawn) [Definite Example 18, (1S, 4aS, 7aS)-4,7-bis(hydroxymethyl)-1,4a, 5,7a-tetrahydro-1-(2-tetrahydropyranyloxy)cyclopenta[c]pyran]
Bile secretion amount, percentage of the hour before dose (bile secretion; 0-1 hour after dose, control 81.1, Table 9): 91.3% | Bile secretion amount, percentage of the hour before dose (bile secretion; 1-2 hour after dose, control 66.6, Table 9): 74.6% | Bile secretion amount, percentage of the hour before dose (bile secretion; 2-3 hour after dose, control 55.8, Table 9): 60.3% | Bile secretion amount, percentage of the hour before dose (bile secretion; 3-4 hour after dose, control 49.0, Table 9): 51.1% | Bile secretion amount, percentage of the hour before dose (bile secretion; 4-5 hour after dose, control 42.8, Table 9): 44.1% | LD50 (Acute toxicity test): 559 mg/kg
